Data: US20200261391A1, “METHODS OF REDUCING THE RISK OF A CARDIOVASCULAR EVENT IN A STATIN-TREATED SUBJECT BY INCREASING SERUM AND PLASMA EPA AND DPA LEVELS” (Amarin Pharmaceuticals Ireland Limited, priority 2019, published 2020)
Several values for one entry are separate records, joined by “and”; a condition that tells them apart may be missing. Identical values can stand only once.

Assays:
[1] = test system: patients with elevated triglyceride levels on statin therapy; assay: REDUCE-IT total (first and subsequent) ischemic events (Example 3; negative binomial, Wei-Lin-Weissfeld, Andersen-Gill, joint frailty models); assay type: in vivo, human; parameters: total (first and subsequent) ischemic events for primary composite endpoint, relative risk reduction / first events, reduction / second events, reduction / third events, reduction / fourth or more events, reduction: concentration or dose not given beside the values; settings: for HR (95% CI), Key Secondary Composite Endpoint / HR (95% CI), Primary Composite Endpoint / RR (95% CI), Key Secondary Composite Endpoint, total events / RR (95% CI), Primary Composite Endpoint, total events: full dataset; for RR (95% CI), Key Secondary Composite Endpoint, total events / RR (95% CI), Primary Composite Endpoint, total events: icosapent ethyl vs placebo
Text: The following study was a multi-center, placebo-controlled clinical trial the details of which are described above in Example 1, the REDUCE-IT design. […] The main outcomes were total primary composite endpoint events defined as cardiovascular death, nonfatal myocardial infarction, nonfatal stroke, coronary revascularization, or hospitalization for unstable angina and total key secondary composite endpoint events defined as cardiovascular death, nonfatal myocardial infarction, or nonfatal stroke. In the context of this study, total events refer to any first event as well as any subsequent event. Differences in total events were determined using other statistical models, including Andersen-Gill, Wei-Lin-Weisfeld (Li and Lagakos), both pre-specified, and a post hoc and joint-frailty analysis.
For the present prespecified analysis, the primary outcome was the total of first plus subsequent ischemic events consisting of the composite of cardiovascular death, nonfatal myocardial infarction, nonfatal stroke, coronary revascularization, or hospitalization for unstable angina. […] Exploratory analyses of the total of first and subsequent events were also performed for the key secondary composite endpoint.
Baseline characteristics were compared between treatment groups using the chi-squared test for categorical variables and the Wilcoxon rank sum test for continuous variables. There are several methods for analyzing first and subsequent (recurrent) event data. As a pre-specified statistical method, a negative binomial regression was used to calculate rates and rate ratios for total cardiovascular events, which accounts for the variability in each patient's risk of events. As pre-specified supportive analyses, the modified Wei-Lin-Weissfeld method (Li and Lagakos modification) was used to calculate hazard ratios (HRs) for the time to the first event, second event, or third event. An additional pre-specified analysis, the Andersen-Gill model using a Cox proportional-hazard with the counting-process formulation was performed to model the total events. In addition, in order to account for informative censoring due to cardiovascular death, the HR for total non-fatal events was calculated using a joint frailty model (See Rondeau V. Joint frailty models for recurring events and death using maximum penalized likelihood estimation: application on cancer events. Biostatistics. 2007; 8:708-21). The joint frailty model simultaneously estimates hazard functions for non-fatal and fatal CV events and takes into account the fact that patients who are prone to have nonfatal events have an elevated risk of a cardiovascular death. The application of the joint frailty model used a gamma distribution for the frailty term.
Statistical analyses using the full adjudicated endpoint events dataset without exclusions using this bundling approach were also determined.

[2] = test system: patients with elevated triglyceride levels on statin therapy; assay: REDUCE-IT endpoints by EPA/AA ratio tertile in the icosapent ethyl group compared to placebo; assay type: in vivo, human
Experimental: This is a study aimed towards determining a relative risk reduction (RRR) between subjects stratified by EPA tertiles in the REDUCE-IT clinical trial described above in Example 1. Samples were obtained from those subjects and total EPA and AA levels in human serum and plasma samples were determined according at least to the methods described in Example 7.
The objective of this study is to assess the effects of administering icosapent ethyl at 4 g per day to patients from the REDUCE-IT trial of Example 1. More specifically, patients from the REDUCE-IT trial of Example 1 were stratified by their EPA levels into one of three tertiles. Following stratification, the objective was to determine if the RRR differs between patients having EPA levels in the three different tertiles. For the data collected as shown in Tables 38-43 and FIGS. 52, 53, and 56-59, the tertiles were established based on data collected from subjects at 1 year, 2 years, and last visit following icosapent ethyl administration compared to placebo. Data are presented as an average of 1 year, 2 year, […], and end of study values. The data was further analyzed use both pooled and unpooled statistically methods.

[3] = Andersen-Gill (I) model, adjusted, vs placebo
[4] = Andersen-Gill (I) model, reduced dataset, vs placebo
[5] = Andersen-Gill (I) model, unadjusted, vs placebo
[6] = Andersen-Gill (II) model, adjusted, vs placebo
[7] = Andersen-Gill (II) model, reduced dataset, vs placebo
[8] = Andersen-Gill (II) model, unadjusted, vs placebo
[9] = Joint frailty model, reduced dataset, vs placebo
[10] = Modified WLW model, reduced dataset, vs placebo
[11] = Modified WLW, first event, adjusted, vs placebo
[12] = Modified WLW, first event, unadjusted, vs placebo
[13] = Modified WLW, second event, adjusted, vs placebo
[14] = Modified WLW, second event, unadjusted, vs placebo
[15] = Modified WLW, third event, adjusted, vs placebo
[16] = Modified WLW, third event, unadjusted, vs placebo
[17] = N = 4089, same-day multiple endpoints handled as a single event
[18] = Negative binomial model, adjusted for stratification factors
[19] = Negative binomial model, reduced dataset, vs placebo
[20] = Negative binomial model, unadjusted
[21] = Wei-Lin-Weissfeld model, Example 3
[22] = per 1000 patients treated for five years
[23] = EPA/AA >0.373068 to ≤0.727974, on-treatment average
[24] = EPA/AA >0.727974, on-treatment average

## CC/C=C\C/C=C\C/C=C\C/C=C\C/C=C\CCCC(=O)OCC [icosapent ethyl, eicosapentaenoic acid ethyl ester]
[1]; [3]
  HR (95% CI), Key Secondary Composite Endpoint: 0.71
  HR (95% CI), Primary Composite Endpoint: 0.68
[1]; [4]
  Adjusted HR, key secondary composite endpoint, total events: 0.72
  Adjusted HR, primary composite endpoint, total events: 0.69
  Unadjusted HR, key secondary composite endpoint, total events: 0.72
  Unadjusted HR, primary composite endpoint, total events: 0.69
[1]; [5]
  HR (95% CI), Key Secondary Composite Endpoint: 0.71
  HR (95% CI), Primary Composite Endpoint: 0.68
[1]; [6]
  HR (95% CI), Key Secondary Composite Endpoint: 0.71
  HR (95% CI), Primary Composite Endpoint: 0.68
[1]; [7]
  Adjusted HR, key secondary composite endpoint, total events: 0.72
  Adjusted HR, primary composite endpoint, total events: 0.69
  Unadjusted HR, key secondary composite endpoint, total events: 0.72
  Unadjusted HR, primary composite endpoint, total events: 0.69
[1]; [8]
  HR (95% CI), Key Secondary Composite Endpoint: 0.71
  HR (95% CI), Primary Composite Endpoint: 0.68
[1]; Example 3
  first events, reduction: 25%
  fourth or more events, reduction: 48%
  second events, reduction: 32%
  third events, reduction: 31%
[1]; [9]
  HR, Cardiovascular Death, key secondary endpoint, adjusted: 0.79
  HR, Cardiovascular Death, key secondary endpoint, unadjusted: 0.79
  HR, Cardiovascular Death, primary endpoint, adjusted: 0.80
  HR, Cardiovascular Death, primary endpoint, unadjusted: 0.80
  HR, Non-fatal Cardiovascular Event, key secondary endpoint, adjusted: 0.68
  HR, Non-fatal Cardiovascular Event, key secondary endpoint, unadjusted: 0.68
  HR, Non-fatal Cardiovascular Event, primary endpoint, adjusted: 0.67
  HR, Non-fatal Cardiovascular Event, primary endpoint, unadjusted: 0.66
[1]; [10]
  Adjusted HR, key secondary composite endpoint, first event: 0.74
  Adjusted HR, key secondary composite endpoint, second event: 0.75
  Adjusted HR, key secondary composite endpoint, third event: 0.79
  Adjusted HR, primary composite endpoint, first event: 0.75
  Adjusted HR, primary composite endpoint, second event: 0.68
  Adjusted HR, primary composite endpoint, third event: 0.69
  Unadjusted HR, key secondary composite endpoint, first event: 0.74
  Unadjusted HR, key secondary composite endpoint, second event: 0.75
  Unadjusted HR, key secondary composite endpoint, third event: 0.79
  Unadjusted HR, primary composite endpoint, first event: 0.76
  Unadjusted HR, primary composite endpoint, second event: 0.69
  Unadjusted HR, primary composite endpoint, third event: 0.69
[1]; [11]
  HR (95% CI), Key Secondary Composite Endpoint: 0.74
  HR (95% CI), Primary Composite Endpoint: 0.75
[1]; [12]
  HR (95% CI), Key Secondary Composite Endpoint: 0.74
  HR (95% CI), Primary Composite Endpoint: 0.76
[1]; [13]
  HR (95% CI), Key Secondary Composite Endpoint: 0.75
  HR (95% CI), Primary Composite Endpoint: 0.68
[1]; [14]
  HR (95% CI), Key Secondary Composite Endpoint: 0.75
  HR (95% CI), Primary Composite Endpoint: 0.69
[1]; [15]
  HR (95% CI), Key Secondary Composite Endpoint: 0.79
  HR (95% CI), Primary Composite Endpoint: 0.70
[1]; [16]
  HR (95% CI), Key Secondary Composite Endpoint: 0.79
  HR (95% CI), Primary Composite Endpoint: 0.70
[1]; N = 4089
  Key secondary endpoint: Total events before reduction, % of overall events: 42.0%
  Primary endpoint: Total events before reduction, % of overall events: (40.7) %
[1]; N = 4089, after reduction
  Key secondary endpoint: Fatal events, % of overall events: 45.0%
  Key secondary endpoint: Non-fatal events, % of overall events: 40.9%
  Primary endpoint: Fatal events, % of overall events: (45.0) %
  Primary endpoint: Non-fatal events, % of overall events: (40.4) %
[1]; [17]
  Key secondary endpoint: Total events after reduction, % of overall events: 42.1%
  Primary endpoint: Total events after reduction, % of overall events: (41.0) %
[1]; [18]
  RR (95% CI), Key Secondary Composite Endpoint, total events: 0.71
  RR (95% CI), Primary Composite Endpoint, total events: 0.69
[1]; [19]
  Adjusted RR, key secondary composite endpoint, total events: 0.72
  Adjusted RR, primary composite endpoint, total events: 0.70
  Unadjusted RR, key secondary composite endpoint, total events: 0.71
  Unadjusted RR, primary composite endpoint, total events: 0.68
[1]; [20]
  RR (95% CI), Key Secondary Composite Endpoint, total events: 0.71
  RR (95% CI), Primary Composite Endpoint, total events: 0.67
[1]; [21]
  first occurrence of primary composite endpoint, HR: 0.75
  second occurrence of primary composite endpoint, HR: 0.68
[1]; in vivo
  total (first and subsequent) ischemic events for primary composite endpoint, relative risk reduction: 30%
[1]; [22]
  cardiovascular deaths prevented: 12
  coronary revascularizations prevented: 76
  episodes of hospitalization for unstable angina prevented: 16
  myocardial infarctions prevented: 42
  strokes prevented: 14
  total primary endpoint events prevented: approximately 159
[1]; placebo 44
  total key secondary endpoint event rate: 32 per 1000 patient years
[1]; placebo 89
  total (first and subsequent) primary endpoint event rate: 61 per 1000 patient years
[1]; vs placebo
  total key secondary endpoint events, RR: 0.72
  total primary endpoint events, rate ratio (RR): 0.70
[2]; EPA/AA >0.373068 to ≤0.727974
  key secondary endpoint HR, middle EPA/AA tertile vs. placebo: 0.61
  primary endpoint HR, middle EPA/AA tertile vs. placebo: 0.70
[2]; [23]
  HR (95% CI), Key Secondary Endpoint, Middle EPA/AA ratio tertile vs Placebo: 0.61 (0.49, 0.75)
  HR (95% CI), Primary Endpoint, Middle EPA/AA ratio tertile vs Placebo: 0.70 (0.59, 0.82)
[2]; EPA/AA >0.727974
  key secondary endpoint HR, highest EPA/AA tertile vs. placebo: 0.65
  primary endpoint HR, highest EPA/AA tertile vs. placebo: 0.67
[2]; [24]
  HR (95% CI), Key Secondary Endpoint, Highest EPA/AA ratio tertile vs Placebo: 0.65 (0.54, 0.80)
  HR (95% CI), Primary Endpoint, Highest EPA/AA ratio tertile vs Placebo: 0.67 (0.57, 0.79)
[2]; EPA/AA ≤0.373068
  key secondary endpoint HR, lowest EPA/AA tertile vs. placebo: 0.94
  primary endpoint HR, lowest EPA/AA tertile vs. placebo: 0.83
[2]; EPA/AA ≤0.373068, on-treatment average
  HR (95% CI), Key Secondary Endpoint, Lowest EPA/AA ratio tertile vs Placebo: 0.94 (0.78, 1.13)
[2]; FIG. 55, ITT, EPA/AA >0.7403
  primary endpoint HR, highest EPA/AA tertile vs. placebo: 0.70 and 0.63
[2]; FIG. 55, ITT, EPA/AA ≤0.3845
  primary endpoint HR, lowest EPA/AA tertile vs. placebo: 0.88
